Reference: ChEMBL document CHEMBL2086317, “Synthesis and Agonistic Activity at the GPR35 of 5,6-Dihydroxyindole-2-carboxylic Acid Analogues” (ACS Med Chem Lett, 2012)
Calls of active or inactive are those of the source. No cut-off for these calls is given here.

Experiments:
Format in all cases: functional, cell-based
[1] = biological target: T1, G-protein coupled receptor 35 (Homo sapiens, UniProt Q9HC97); experiment: Agonist activity at GPR35 in human HT-29 cells measured after 10 mins by dynamic mass redistribution assay
[2] = biological target: T1, G-protein coupled receptor 35; experiment: Agonist activity at human GPR35 expressed in U2OS cells coexpressing Gal4-VP16/beta-arrestin fusion protein after 5 hrs by tango beta-arrestin translocation reporter gene assay
[3] = biological target: T1, G-protein coupled receptor 35; experiment: Agonist activity at human GPR35 expressed in U2OS cells coexpressing Gal4-VP16/beta-arrestin fusion protein after 5 hrs by tango beta-arrestin translocation reporter gene assay relative to zaprinast
[4] = biological target: T1, G-protein coupled receptor 35; experiment: Agonist activity at GPR35 in human HT-29 cells at 64 uM measured after 10 mins by dynamic mass redistribution assay in presence of SPB05142
[5] = biological target: T1, G-protein coupled receptor 35; experiment: Agonist activity at GPR35 in human HT-29 cells at 32 uM measured after 10 mins by dynamic mass redistribution assay in presence of SPB05142
[6] = biological target: T1, G-protein coupled receptor 35; experiment: Agonist activity at GPR35 in human HT-29 cells at 1 uM measured after 10 mins by dynamic mass redistribution assay in presence of SPB05142
[7] = biological target: T1, G-protein coupled receptor 35; experiment: Agonist activity at human GPR35 expressed in U2OS cells coexpressing Gal4-VP16/beta-arrestin fusion protein at 100 uM after 5 hrs by tango beta-arrestin translocation reporter gene assay in presence of ML145

T1 sequence (Q9HC97 whole entry, the tested form may be a part): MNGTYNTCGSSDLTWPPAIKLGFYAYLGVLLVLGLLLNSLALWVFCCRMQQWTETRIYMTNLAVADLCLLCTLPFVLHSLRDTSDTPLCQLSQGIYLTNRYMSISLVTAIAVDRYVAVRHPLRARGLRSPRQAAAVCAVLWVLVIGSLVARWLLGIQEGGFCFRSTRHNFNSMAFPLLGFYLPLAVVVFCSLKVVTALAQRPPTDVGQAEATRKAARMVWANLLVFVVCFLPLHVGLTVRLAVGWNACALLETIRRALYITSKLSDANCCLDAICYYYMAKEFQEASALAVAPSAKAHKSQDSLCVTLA

| EC50 ([2]; u2os) | Efficacy [3] [%] | EC50 ([1]; read-out: EC50) [µM] | EC50 ([2]; read-out: EC50) [µM] | further results | SMILES |
| --- | --- | --- | --- | --- | --- |
| Not Active |  |  |  | EC50 ([1]; ht-29): Not Active | O=C(O)Cn1c(C(=O)O)cc2cc(O)c(O)cc21 |
|  | 27 | 16.2 | 133 | Activity [4]: inactive | Cc1c(C(=O)O)oc2cc(O)c(O)cc12 |
|  | 25 | 1.06 | 24.2 |  | O=C(O)c1[nH]c2cc(O)c(O)cc2c1-c1cc(Cl)cc(Cl)c1 |
|  | 48 | 4.36 | 109 |  | O=C(O)c1[nH]c2cc(O)c(O)cc2c1-c1cc(F)cc(F)c1 |
|  | 52 | 77.1 | 45.7 |  | CCn1c(C(=O)O)cc2cc(O)c(O)cc21 |
|  | 86 | 7.35 | 520 | Activity [5]: inactive | O=C(O)c1cc2cc(O)c(O)cc2s1 |
|  | 17 | 24.9 | 75.7 |  | O=C(O)c1cccc(-c2c(C(=O)O)[nH]c3cc(O)c(O)cc23)c1 |
|  | 18 | 10.3 | 61.2 |  | O=C(O)c1[nH]c2cc(O)c(O)cc2c1-c1ccsc1 |
|  | 89 | 2.54 | 387 |  | O=C(O)c1[nH]c2cc(O)c(O)cc2c1-c1ccc(Cl)cc1 |
| Not Active |  | 43.7 |  |  | O=C(Cn1c(C(=O)O)cc2cc(O)c(O)cc21)c1ccccc1 |
|  | 75 | 23.6 | 23.2 |  | O=C(O)c1cc2cc(O)c(O)cc2[nH]1 |
|  | 109 | 6.17 | 90.6 | Activity [5]: inactive | Cc1c(C(=O)O)sc2cc(O)c(O)cc12 |
| Not Active |  | 84 |  |  | O=C(O)c1[nH]c2cc(O)c(O)cc2c1-c1cccnc1 |
| Not Active |  | 20.2 |  |  | O=C(O)c1[nH]c2cc(O)c(O)cc2c1-c1ccccc1 |
|  | 40 | 22.6 | 10.8 |  | O=C(O)c1ccc(-c2c(C(=O)O)[nH]c3cc(O)c(O)cc23)cc1 |
| Not Active |  | 39.7 |  |  | Cc1ccc(C(=O)Cn2c(C(=O)O)cc3cc(O)c(O)cc32)cc1 |
|  | 48 | 4.1 | 166 |  | O=C(O)c1[nH]c2cc(O)c(O)cc2c1Br |
|  | 94 | 0.16 | 46.5 | Activity [6]: inactive; Activity [7]: inactive | Cc1c(C(=O)O)sc2cc(Br)c(O)c(Br)c12 |
|  | 85 | 64.2 | 45.4 |  | Cn1c(C(=O)O)cc2cc(O)c(O)cc21 |
| Not Active |  | 43.5 |  |  | O=C(O)c1cc2cc(O)c(O)cc2n1Cc1ccccc1 |
|  | 19 | 2.48 | 34.4 |  | O=C(O)c1[nH]c2cc(O)c(O)cc2c1-c1cccc(Cl)c1 |
| Not Active |  | 12.9 |  |  | O=C(O)c1[nH]c2cc(O)c(O)cc2c1-c1ccc(C(F)(F)F)cc1 |
|  | > 25 | 17.3 | > 500 |  | Cc1ccc(Cn2c(C(=O)O)cc3cc(O)c(O)cc32)cc1 |
